Laboratory results reported in patent US20230365625A1, “METHODS FOR TREATING AND/OR PREVENTING UNDESIRABLE SEQULAE OF NASAL TURBINOPLASTY OR FUNCTIONAL ENDOSCOPIC SINUS SURGERY” (3-D Matrix, Ltd., priority 2022, published 2023).
“And” between values parts separate entries of the source, which are not always exact repeats. Identical values can stand only once.

Legend:
[1] = test system: Functional Endoscopic Sinus Surgery (FESS) surgical wound; assay type: in vivo, human
Excerpt: Study design—This study was a retrospective chart review of 94 consecutive human patients who underwent FESS and who were operated on by a single surgeon in a single center in Perth, Western Australia. FIGS. 6A and 6B show a flowchart of patients based on extent of surgery and outcomes. Only patients treated with PuraSinus alone (no other hemostatic agent was used) were included in the analysis. Ethics approval was obtained from St John of Good Health Care Human Research Ethics Committee.
Patient population—The study included adult human patients who underwent FESS procedures and also included patients who underwent FESS in combination with nasal surgery (septoplasty and/or turbinoplasty). Both primary and revision cases were included. Patients were discharged the day after surgery with a recommendation to perform saline nasal irrigations no less than four times a day. Patient characteristics, indication for surgery, extent of surgical intervention, and bleeding and adhesion information was recorded.
Surgical categories—Procedures were performed according to the minimally invasive sinus technique (MIST), including combination of maxillary antrostomy, ethmoidectomies, sphenoidotomies and frontal sinus (Draf Ila, or Draf 111), turbinate reduction and/or septoplasty. FESS procedures were categorized into two groups: complete FESS (including all sinuses—maxillary antrostomy, ethmoidectomy, sphenoidotomy, and frontal sinusotomy) or limited FESS (anything less than complete FESS, usually involves antrostomy and ethmoidectomy). The surgical extent was dictated by the patient's condition and the surgeon's clinical judgement.
Material used—PuraSinus (licensed as PuraStat in Australia, 3D-Matrix)/RADA16-I (SEQ ID NO:1) 2.5% w/v in water is a transparent SAP solution supplied sterile in a pre-filled syringe (available in a 3 mL and 5 mL form) ready for use with a thin application nozzle suited for endoscopic catheter administration. The syringe is stored at between 2° C. and 8° C. At completion of the FESS procedure, PuraSinus was applied to the surgical wound in a thin and even layer as close as possible to the bleeding point. A similar application technique has been outlined previously (M. Lee et al., Int. J. Surg. Case Rep. 41: 461-4 (2017)). […] Tissues treated with the hydrogel were visible via endoscope given the gel's transparency.
Outcomes and objectives—The objectives of this study were to evaluate the effectiveness of PuraSinus in rapidly achieving intraoperative hemostasis and to assess the incidence of delayed bleeding ([…]) and synechiae formation via endoscopic observation of the nasal mucosa at follow-up visits. Primary bleeding was defined as bleeding occurring within 24 hours of surgery.
Data analysis—Statistical analysis was performed using descriptive statistics for continuous variables and patient demographics were reported. The rate of successful hemostasis and incidence of synechiae formation were calculated as a proportion of total patients undergoing FESS.

[2] = test system: turbinate reduction surgery (TRS/Turbinoplasty); conditions: first follow-up at four weeks; result in words; cited from earlier work
[3] = RADA16 2.5%, IEIK13 1.3%, QLEL12 0.15% in water; result in words; cited from earlier work
[4] = 2.5% in water; cited from earlier work
[5] = pH of the supplied solution; assay type: physicochemical; conditions: 2.5% weight/volume solution in water
Excerpt: Details of the Sheep Study—Endoscopic nasal surgery targeting the turbinates and sinuses has become a cornerstone in managing chronic rhinosinusitis. A sheep model was chosen to test treatment of an endoscopic surgical wound deep in the sinuses with PuraSinus (RADA16-I; (SEQ ID NO:1) 2.5% in water) compared to controls as a model for […] in humans both due to the size of the animals and the suitability of the sheep model for comparison with this kind of surgery in humans as described below. PuraSinus (ARTG: 267486; (SEQ ID NO:1)) was supplied by 3-D Matrix Europe SAS as a 2.5% weight/volume solution of synthetic SAPs in water having a pH of about 2.3. Upon contact with physiologic tissue and/or liquid like blood, the pH and/or ionic strength of PuraSinus (SEQ ID NO:1) increases, triggering the self-assembly of the peptides into nanofibers, forming a beta-sheet network similar to an extracellular matrix. At a macroscopic level, the viscous solution forms a hydrogel that seals the opened vessels resulting in hemostasis. PuraSinus (SEQ ID NO:1) is biocompatible and free from infectious agents and is resorbed over time although some residue may remain for ≥30 days. It is supplied sterile in a syringe and delivered through a nozzle supplied by the manufacturer. It is stored at 2-8° C. […]

SMILES: CC(=O)N[C@@H](CCCNC(=N)N)C(=O)N[C@@H](C)C(=O)N[C@@H](CC(=O)O)C(=O)N[C@@H](C)C(=O)N[C@@H](CCCNC(=N)N)C(=O)N[C@@H](C)C(=O)N[C@@H](CC(=O)O)C(=O)N[C@@H](C)C(=O)N[C@@H](CCCNC(=N)N)C(=O)N[C@@H](C)C(=O)N[C@@H](CC(=O)O)C(=O)N[C@@H](C)C(=O)N[C@@H](CCCNC(=N)N)C(=O)N[C@@H](C)C(=O)N[C@@H](CC(=O)O)C(=O)N[C@@H](C)C(N)=O [PuraSinus, Ac-RADARADARADARADA-NH2]
- Blood transfusion required ([1]; human, in vivo): None of the patients in this study required a blood transfusion
- Secondary bleed, patients ([1]; more than 24 hours after surgery, n of 94): 3
- Secondary bleed, rate ([1]; more than 24 hours after surgery, of 94 patients): 3.2%
- Intervention required for bleeding, patients ([1]; n of 94): 4
- Intervention required, primary bleed, patients ([1]; n of 94): 3
- Intervention required, secondary bleed, patients ([1]; n of 94): 1
- Bleed (postoperative), patients ([1]; n of 94 patients): 6
- Hemostatic effectiveness, patients ([1]; no bleeding or no intervention required, n of 94): 90
- Hemostatic effectiveness, rate ([1]; no bleeding or no intervention required, of 94 patients): 95.7%
- Type of intervention: Cautery + Surgiflo, patients ([1]; of 4 interventions): 1
- Type of intervention: Cautery + additional PuraSinus, patients ([1]; of 4 interventions): 1
- Type of intervention: Cautery alone, patients ([1]; of 4 interventions): 1
- Type of intervention: Packing, patients ([1]; of 4 interventions): 1
- Bleeding patients on anticoagulation/antiplatelets post-op ([1]; of 6 bleeds): 1
- Bleeding patients with suspected or confirmed coagulopathy ([1]; of 6 bleeds): 2
- Patients with postoperative bleeding: Complete FESS ([1]; of 6 bleeds): 1
- Patients with postoperative bleeding: Female ([1]; of 6 bleeds): 5
- Patients with postoperative bleeding: Limited FESS ([1]; of 6 bleeds): 5
- Patients with postoperative bleeding: Male ([1]; of 6 bleeds): 1
- Bleed (postoperative), rate ([1]; of 94 patients): 6.4%
- Intervention required for bleeding, rate ([1]; of 94 patients): 4.3% and 4.2%
- Intervention required, primary bleed, rate ([1]; of 94 patients): 3.2%
- Intervention required, secondary bleed, rate ([1]; of 94 patients): 1.1%
- Re-bleeds in patients with primary or secondary bleeds ([1]; result in words): no re-bleeds recorded
- Hemostasis in the absence of other hemostatic agents and devices ([1]; result in words, most patients): effective hemostasis
- Primary bleed, patients ([1]; within 24 hours of surgery, n of 94): 3
- Primary bleed, rate ([1]; within 24 hours of surgery, of 94 patients): 3.2%
- Postoperative bleeding or adhesion formation [2]: none of their patients experiencing bleeding or adhesion formation postoperatively
- Effect of gamma-irradiation sterilization [3]: enhanced the rheological properties
- Storage modulus G′ [4]: about 350 Pa
- pH [5]: about 2.3
